# Results as given in patent US6489469B1, “Method for storing or transporting erythritol solution” (Nikken Chemicals Co., Ltd., priority 1999, dated 2002).
# System: Saccharomyces cerevisiae ATCC 9763
# Assay: Viable Count of Saccharomyces cerevisiae ATCC 9763 in Erythritol Solution
# Type: cell-based
# Experimental: Erythritol solutions of respective concentrations in the range of from 30 to 60% were prepared. To these were inoculated Staphylococcus aureus IFO 13276, Bacillus subtilis IFO 3134, and Escherichia coli IFO 3972 as bacteria, Candida albicans IFO 1549 and Saccharomyces cerevisiae ATCC 9763 as yeasts, Aspergillus niger IFO 6342, Aspergillus flavus IFO 6343, and Penicillium funiculosum IFO 6345 as fungi, respectively, in a population (concentration) of 10,000 cells/mL or more. After the inoculation, the solutions were stored at 30, 37, 45, 50, or 60° C., respectively, for 56 days and the number of viable cell was determined daily. The determination of the number of viable cell was performed by a method of coating 0.1 mL of appropriately diluted sample cultivation on an agar plate and cultivating and counting the number of viable cell (the number of colony) that grew after the cultivation.
smiles,measurement,setting,value
"OC[C@@H](O)[C@@H](O)CO [Erythritol Solution, erythritol]",The Number of Viable Cell,"37° C., 30% w/w, Day 0",≥ 10000 cells/mL
same,The Number of Viable Cell,"37° C., 30% w/w, Day 3",≥ 10000 cells/mL
same,The Number of Viable Cell,"37° C., 30% w/w, Day 7",≥ 10000 cells/mL
same,The Number of Viable Cell,"37° C., 30% w/w, Day 14",≥ 10000 cells/mL
same,The Number of Viable Cell,"37° C., 30% w/w, Day 28",≥ 10000 cells/mL
same,The Number of Viable Cell,"37° C., 30% w/w, Day 56",0 cells/mL
same,The Number of Viable Cell,"37° C., 40% w/w, Day 0",≥ 10000 cells/mL
same,The Number of Viable Cell,"37° C., 40% w/w, Day 3",≥ 10000 cells/mL
same,The Number of Viable Cell,"37° C., 40% w/w, Day 7",≥ 10000 cells/mL
same,The Number of Viable Cell,"37° C., 40% w/w, Day 14",≥ 10000 cells/mL
same,The Number of Viable Cell,"37° C., 40% w/w, Day 28",1130 cells/mL
same,The Number of Viable Cell,"37° C., 40% w/w, Day 56",0 cells/mL
same,The Number of Viable Cell,"45° C., 30% w/w, Day 0",≥ 10000 cells/mL
same,The Number of Viable Cell,"45° C., 30% w/w, Day 3",1480 cells/mL
same,The Number of Viable Cell,"45° C., 30% w/w, Day 7",0 cells/mL
same,The Number of Viable Cell,"45° C., 30% w/w, Day 14",0 cells/mL
same,The Number of Viable Cell,"45° C., 30% w/w, Day 28",0 cells/mL
same,The Number of Viable Cell,"45° C., 30% w/w, Day 56",0 cells/mL
same,The Number of Viable Cell,"45° C., 40% w/w, Day 0",≥ 10000 cells/mL
same,The Number of Viable Cell,"45° C., 40% w/w, Day 3",1440 cells/mL
same,The Number of Viable Cell,"45° C., 40% w/w, Day 7",0 cells/mL
same,The Number of Viable Cell,"45° C., 40% w/w, Day 14",0 cells/mL
same,The Number of Viable Cell,"45° C., 40% w/w, Day 28",0 cells/mL
same,The Number of Viable Cell,"45° C., 40% w/w, Day 56",0 cells/mL
same,The Number of Viable Cell,"45° C., 50% w/w, Day 0",≥ 10000 cells/mL
same,The Number of Viable Cell,"45° C., 50% w/w, Day 3",1600 cells/mL
same,The Number of Viable Cell,"45° C., 50% w/w, Day 7",0 cells/mL
same,The Number of Viable Cell,"45° C., 50% w/w, Day 14",0 cells/mL
same,The Number of Viable Cell,"45° C., 50% w/w, Day 28",0 cells/mL
same,The Number of Viable Cell,"45° C., 50% w/w, Day 56",0 cells/mL
same,The Number of Viable Cell,"50° C., 30% w/w, Day 0",≥ 10000 cells/mL
same,The Number of Viable Cell,"50° C., 30% w/w, Day 3",0 cells/mL
same,The Number of Viable Cell,"50° C., 30% w/w, Day 7",0 cells/mL
same,The Number of Viable Cell,"50° C., 30% w/w, Day 14",0 cells/mL
same,The Number of Viable Cell,"50° C., 30% w/w, Day 28",0 cells/mL
same,The Number of Viable Cell,"50° C., 30% w/w, Day 56",0 cells/mL
same,The Number of Viable Cell,"50° C., 40% w/w, Day 0",≥ 10000 cells/mL
same,The Number of Viable Cell,"50° C., 40% w/w, Day 3",0 cells/mL
same,The Number of Viable Cell,"50° C., 40% w/w, Day 7",0 cells/mL
same,The Number of Viable Cell,"50° C., 40% w/w, Day 14",0 cells/mL
same,The Number of Viable Cell,"50° C., 40% w/w, Day 28",0 cells/mL
same,The Number of Viable Cell,"50° C., 40% w/w, Day 56",0 cells/mL
same,The Number of Viable Cell,"50° C., 50% w/w, Day 0",≥ 10000 cells/mL
same,The Number of Viable Cell,"50° C., 50% w/w, Day 3",0 cells/mL
same,The Number of Viable Cell,"50° C., 50% w/w, Day 7",0 cells/mL
same,The Number of Viable Cell,"50° C., 50% w/w, Day 14",0 cells/mL
same,The Number of Viable Cell,"50° C., 50% w/w, Day 28",0 cells/mL
same,The Number of Viable Cell,"50° C., 50% w/w, Day 56",0 cells/mL
same,growth of the microbes,temperature of 50° C. or more,prevented from growing
same,time after which microbes died,temperature of 50° C. or more,3 days
